Test results taken from patent US20250171438A1 (Agios Pharmaceuticals, Inc., priority 2022, published 2025).

target: T1, human PAH with the R408W mutation (Homo sapiens, UniProt P00439, R408W); experiment: Cell Based Phenylalanine Flux Assay; settings: A375 cells expressing human R408W PAH; 24 hrs with compound; 13C-Tyrosine by LC-MS; average where tested multiple times; read-out: AC50
T1 construct: expressed in transfected cells
T1 sequence (P00439 1-452 R408W): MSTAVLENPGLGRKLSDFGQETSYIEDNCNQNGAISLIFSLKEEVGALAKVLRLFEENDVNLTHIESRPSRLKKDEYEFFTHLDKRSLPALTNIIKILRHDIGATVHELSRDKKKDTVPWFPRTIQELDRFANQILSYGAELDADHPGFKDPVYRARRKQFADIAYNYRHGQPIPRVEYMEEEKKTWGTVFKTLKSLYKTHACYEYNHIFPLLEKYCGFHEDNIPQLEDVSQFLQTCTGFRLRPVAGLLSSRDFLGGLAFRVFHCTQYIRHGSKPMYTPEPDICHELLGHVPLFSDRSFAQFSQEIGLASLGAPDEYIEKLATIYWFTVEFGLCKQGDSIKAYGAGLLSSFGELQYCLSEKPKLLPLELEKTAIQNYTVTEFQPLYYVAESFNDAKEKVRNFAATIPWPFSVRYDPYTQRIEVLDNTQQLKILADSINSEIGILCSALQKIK

AC50	SMILES
> 5 µM	Cc1nnc(CCC(=O)N2CCc3[nH]cnc3C2c2nc3ccccc3s2)o1 (centres unmarked) [listing 1 of 2 here]
> 5 µM	O=C(Cc1coc(C(F)F)n1)N1CCc2[nH]cnc2C1c1nc2ccccc2s1 (centres unmarked) [listing 1 of 2 here]
> 5 µM	O=C(CCc1nnc(C(F)F)o1)N1CCc2[nH]cnc2C1c1nc2ccccc2s1 (centres unmarked) [listing 1 of 2 here]
> 5 µM	Cc1ncc(CC(=O)N2CCc3[nH]cnc3C2c2nc3ccccc3s2)o1 (centres unmarked) [listing 1 of 2 here]
> 5 µM	O=C(Cc1ccccn1)N1CCc2[nH]cnc2C1c1nc2ccccc2s1 (centres unmarked) [listing 1 of 2 here]
> 5 µM	O=C(Cc1cnn2ccccc12)N1CCc2[nH]cnc2C1c1nc2ccccc2s1 (centres unmarked) [listing 1 of 2 here]
> 5 µM	O=C(Cc1cscn1)N1CCc2[nH]cnc2C1c1nc2ccccc2s1 (centres unmarked)
> 5 µM	O=C(Cc1cncs1)N1CCc2[nH]cnc2C1c1nc2ccccc2s1 (centres unmarked) [listing 1 of 2 here]
> 5 µM	O=C(c1cnn(CC(F)(F)F)c1)N1CCc2[nH]cnc2C1c1nc2ccccc2s1 (centres unmarked) [listing 1 of 2 here]
> 5 µM	O=C(c1cnco1)N1CCCc2[nH]cnc2C1c1nc2ccccc2s1 (centres unmarked) [listing 1 of 2 here]
> 5 µM	Cc1nc(CCN2CC(F)C2)oc1C(=O)N1CCc2[nH]cnc2C1c1nc2ccccc2s1 (centres unmarked) [listing 1 of 2 here]
> 5 µM	Cc1nc(CCC2CC2)oc1C(=O)N1CCCc2[nH]cnc2C1c1nc2ccccc2s1 (centres unmarked)
> 5 µM	Cc1nc(-c2ccccn2)c(C(=O)N2CCc3[nH]cnc3C2c2nc3ccccc3s2)o1 (centres unmarked) [listing 1 of 2 here]
1 to 5 µM	O=C(c1nc(C(F)(F)F)co1)N1CCc2[nH]cnc2C1c1nc2ccccc2s1 (centres unmarked)
> 5 µM	Cc1nc(-c2ccccn2)sc1C(=O)N1CCc2[nH]cnc2C1c1nc2ccccc2s1 (centres unmarked) [listing 1 of 2 here]
> 5 µM	O=C(Nc1ccc(F)cc1)N1CCc2[nH]cnc2C1c1nc2ccccc2s1 (centres unmarked) [listing 1 of 2 here]
> 5 µM	Cc1nc(CCCN(C)C)oc1C(=O)N1CCc2[nH]cnc2C1c1nc2ccccc2s1 (centres unmarked) [listing 1 of 2 here]
1 to 5 µM	Cc1nnc(CCC(=O)N2CCc3[nH]cnc3C2c2nc3ccccc3s2)o1 (centres unmarked) [listing 2 of 2 here]
1 to 5 µM	O=C(Cc1coc(C(F)F)n1)N1CCc2[nH]cnc2C1c1nc2ccccc2s1 (centres unmarked) [listing 2 of 2 here]
1 to 5 µM	O=C(CCc1nnc(C(F)F)o1)N1CCc2[nH]cnc2C1c1nc2ccccc2s1 (centres unmarked) [listing 2 of 2 here]
1 to 5 µM	Cc1ncc(CC(=O)N2CCc3[nH]cnc3C2c2nc3ccccc3s2)o1 (centres unmarked) [listing 2 of 2 here]
1 to 5 µM	O=C(Cc1cnn2ccccc12)N1CCc2[nH]cnc2C1c1nc2ccccc2s1 (centres unmarked) [listing 2 of 2 here]
1 to 5 µM	O=C(Cc1cncs1)N1CCc2[nH]cnc2C1c1nc2ccccc2s1 (centres unmarked) [listing 2 of 2 here]

AC50	SMILES
> 5 µM	O=C(Cn1cncn1)N1CCc2[nH]cnc2C1c1nc2ccccc2s1 (centres unmarked)
1 to 5 µM	O=C(Cc1ccccn1)N1CCc2[nH]cnc2C1c1nc2ccccc2s1 (centres unmarked) [listing 2 of 2 here]
> 5 µM	Cc1nnc(CC(=O)N2CCc3[nH]cnc3C2c2nc3ccccc3s2)o1 (centres unmarked)
1 to 5 µM	O=C(Cc1cnco1)N1CCc2[nH]cnc2C1c1nc2ccccc2s1 (centres unmarked)
1 to 5 µM	Cc1ncoc1CC(=O)N1CCc2[nH]cnc2C1c1nc2ccccc2s1 (centres unmarked)
1 to 5 µM	O=C(c1cnn(CC(F)(F)F)c1)N1CCc2[nH]cnc2C1c1nc2ccccc2s1 (centres unmarked) [listing 2 of 2 here]
> 5 µM	O=C(c1cnc[nH]1)N1CCc2[nH]cnc2C1c1nc2ccccc2s1 (centres unmarked)
1 to 5 µM	O=C(c1nsc2ccccc12)N1CCc2[nH]cnc2C1c1nc2ccccc2s1 (centres unmarked)
1 to 5 µM	O=C(c1cnco1)N1CCCc2[nH]cnc2C1c1nc2ccccc2s1 (centres unmarked) [listing 2 of 2 here]
1 to 5 µM	Cc1nc(CCN2CC(F)C2)oc1C(=O)N1CCc2[nH]cnc2C1c1nc2ccccc2s1 (centres unmarked) [listing 2 of 2 here]
1 to 5 µM	Cc1nc(-c2ccccn2)c(C(=O)N2CCc3[nH]cnc3C2c2nc3ccccc3s2)o1 (centres unmarked) [listing 2 of 2 here]
1 to 5 µM	COC1CN(C(=O)N2CCc3[nH]cnc3C2c2nc3ccccc3s2)C1 (centres unmarked)
> 5 µM	Cc1nc(C(C)(C)O)oc1C(=O)N1CCCc2[nH]cnc2C1c1nc2ccccc2s1 (centres unmarked)
> 5 µM	O=C(c1ocnc1-c1ccccn1)N1CCCc2[nH]cnc2C1c1nc2ccccc2s1 (centres unmarked)
1 to 5 µM	Cc1nc(-c2ccccn2)sc1C(=O)N1CCc2[nH]cnc2C1c1nc2ccccc2s1 (centres unmarked) [listing 2 of 2 here]
1 to 5 µM	O=C(c1nnc(N2CC(F)C2)o1)N1CCc2[nH]cnc2C1c1nc2ccccc2s1 (centres unmarked)
1 to 5 µM	Cc1nnc(C(=O)N2CCc3[nH]cnc3C2c2nc3ccccc3s2)o1 (centres unmarked)
> 5 µM	Cc1ncoc1C(=O)N1CC(C)(C)c2[nH]cnc2C1c1nc2ccccc2s1 (centres unmarked)
1 to 5 µM	O=C(Nc1ccc(F)cc1)N1CCc2[nH]cnc2C1c1nc2ccccc2s1 (centres unmarked) [listing 2 of 2 here]
1 to 5 µM	COCCNc1nnc(C(=O)N2CCc3[nH]cnc3C2c2nc3ccccc3s2)o1 (centres unmarked)
> 5 µM	Cc1nc(NC2CC2)oc1C(=O)N1CCCc2[nH]cnc2C1c1nc2ccccc2s1 (centres unmarked)
1 to 5 µM	Cc1nc(CCCN(C)C)oc1C(=O)N1CCc2[nH]cnc2C1c1nc2ccccc2s1 (centres unmarked) [listing 2 of 2 here]
1 to 5 µM	O=C(N1CCC(O)C1)N1CCc2[nH]cnc2C1c1nc2ccccc2s1 (centres unmarked)

More lines, now with the values behind:

SMILES	AC50
CS(=O)(=O)N1CC(C(=O)N2CCc3[nH]cnc3C2c2nc3ccccc3s2)C1 (centres unmarked) [listing 1 of 2 here]	> 5 µM
O=C(c1oc(-c2ccccc2)nc1-c1ccccc1)N1CCc2[nH]cnc2C1c1nc2ccccc2s1 (centres unmarked) [listing 1 of 2 here]	> 5 µM
Cn1cc(-c2cccc(C(=O)N3CCc4[nH]cnc4C3c3nc4ccccc4s3)c2)cn1 (centres unmarked)	> 5 µM
O=C(c1nc(Cl)cs1)N1CCc2[nH]cnc2C1c1nc2c(F)cccc2s1 (centres unmarked) [listing 1 of 2 here]	> 5 µM
Cc1nc(N2CCOCC2)oc1C(=O)N1CCCc2[nH]cnc2C1c1nc2ccccc2s1 (centres unmarked) [listing 1 of 2 here]	> 5 µM
O=C(c1nnc(CCN2CC(F)C2)o1)N1CCc2[nH]cnc2C1c1nc2ccccc2s1 (centres unmarked) [listing 1 of 2 here]	> 5 µM
O=C(c1nnc(-c2ccccn2)o1)N1CCCc2[nH]cnc2C1c1nc2ccccc2s1 (centres unmarked)	> 5 µM
O=C(c1cnn2cc(N3CCCC3)ccc12)N1CCc2[nH]cnc2C1c1nc2ccccc2s1 (centres unmarked) [listing 1 of 2 here]	> 5 µM
O=C(N1CCC(c2ccccc2)C1)N1CCc2[nH]cnc2C1c1nc2ccccc2s1 (centres unmarked) [listing 1 of 3 here]	> 5 µM
O=C(N1CCC(c2ccccc2)C1)N1CCc2[nH]cnc2C1c1nc2ccccc2s1 (centres unmarked) [listing 2 of 3 here]	> 5 µM
Cc1ncc(C(=O)N2CCc3[nH]cnc3C2c2nc3c(F)cccc3s2)o1 (centres unmarked)	> 5 µM
Cc1nc(-c2ccccn2)c(C(=O)N2CCc3[nH]cnc3C2c2nc3c(F)cccc3s2)o1 (centres unmarked) [listing 1 of 2 here]	> 5 µM
O=C(c1ncco1)N1CCc2[nH]cnc2C1c1nc2cc(F)ccc2s1 (centres unmarked) [listing 1 of 2 here]	> 5 µM
Cc1nnc(C(=O)N2CCc3[nH]cnc3C2c2nc3cc(F)ccc3s2)s1 (centres unmarked) [listing 1 of 2 here]	> 5 µM
O=C(c1ccno1)N1CCc2[nH]cnc2C1c1nc2ccc(F)cc2s1 (centres unmarked) [listing 1 of 2 here]	> 5 µM
O=C(c1ncco1)N1CCc2[nH]cnc2C1c1nc2ccc(F)cc2s1 (centres unmarked)	> 5 µM
O=C(c1cnn2cc(F)ccc12)N1CCc2[nH]cnc2C1c1nc2ccc(F)cc2s1 (centres unmarked) [listing 1 of 2 here]	> 5 µM
O=C(c1cnn2cc(CO)ccc12)N1CCc2[nH]cnc2C1c1nc2ccccc2s1 (centres unmarked) [listing 1 of 2 here]	> 5 µM
CNCc1ccc2c(C(=O)N3CCc4[nH]cnc4C3c3nc4ccccc4s3)cnn2c1 (centres unmarked) [listing 1 of 2 here]	> 5 µM
O=C(C1CN(c2ccc(Cl)cc2)C1)N1CCc2[nH]cnc2C1c1nc2ccccc2s1 (centres unmarked)	1 to 5 µM
CS(=O)(=O)N1CC(C(=O)N2CCc3[nH]cnc3C2c2nc3ccccc3s2)C1 (centres unmarked) [listing 2 of 2 here]	1 to 5 µM
O=C(c1oc(C=CC2CC2)nc1C(F)(F)F)N1CCCc2[nH]cnc2C1c1nc2ccccc2s1 (centres unmarked)	> 5 µM
Cc1nc(C=CC2CC2)oc1C(=O)N1CCCc2[nH]cnc2C1c1nc2ccccc2s1 (centres unmarked)	> 5 µM
O=C(c1oc(-c2ccccc2)nc1-c1ccccc1)N1CCc2[nH]cnc2C1c1nc2ccccc2s1 (centres unmarked) [listing 2 of 2 here]	1 to 5 µM
CC(C)(O)c1nnc(C(=O)N2CCc3[nH]cnc3C2c2nc3c(F)cccc3s2)o1 (centres unmarked)	1 to 5 µM

SMILES	AC50
O=C(c1nc(Cl)cs1)N1CCc2[nH]cnc2C1c1nc2c(F)cccc2s1 (centres unmarked) [listing 2 of 2 here]	1 to 5 µM
Cc1nc(CN2CCOCC2)oc1C(=O)N1CCCc2[nH]cnc2C1c1nc2ccccc2s1 (centres unmarked)	> 5 µM
Cc1nc(N2CCOCC2)oc1C(=O)N1CCCc2[nH]cnc2C1c1nc2ccccc2s1 (centres unmarked) [listing 2 of 2 here]	1 to 5 µM
Cc1nc(-c2ccccn2)oc1C(=O)N1CCCc2[nH]cnc2C1c1nc2ccccc2s1 (centres unmarked)	1 to 5 µM
O=C(c1nnc(CCN2CC(F)C2)o1)N1CCc2[nH]cnc2C1c1nc2ccccc2s1 (centres unmarked) [listing 2 of 2 here]	1 to 5 µM
CN1CCN(c2nnc(C(=O)N3CCc4[nH]cnc4C3c3nc4ccccc4s3)o2)CC1 (centres unmarked)	1 to 5 µM
c1ccc2sc(C3c4nc[nH]c4CCN3c3nnc(C4CC4)o3)nc2c1 (centres unmarked)	1 to 5 µM
O=C(c1cnn2cc(N3CCCC3)ccc12)N1CCc2[nH]cnc2C1c1nc2ccccc2s1 (centres unmarked) [listing 2 of 2 here]	1 to 5 µM
O=C(C1CC1(F)F)N1CCc2[nH]cnc2C1c1nc2c(F)cccc2s1 (centres unmarked)	1 to 5 µM
O=C(N1CCC(c2ccccc2)C1)N1CCc2[nH]cnc2C1c1nc2ccccc2s1 (centres unmarked) [listing 3 of 3 here]	1 to 5 µM
CC1(C)CN(C(=O)c2cnco2)C(c2nc3c(F)cccc3s2)c2nc[nH]c21 (centres unmarked)	> 5 µM
Cc1nc(-c2ccccn2)c(C(=O)N2CCc3[nH]cnc3C2c2nc3c(F)cccc3s2)o1 (centres unmarked) [listing 2 of 2 here]	1 to 5 µM
O=C(c1ncco1)N1CCc2[nH]cnc2C1c1nc2cc(F)ccc2s1 (centres unmarked) [listing 2 of 2 here]	1 to 5 µM
O=C(c1cnco1)N1CCc2[nH]cnc2C1c1nc2cc(F)ccc2s1 (centres unmarked)	1 to 5 µM
Cc1nnc(C(=O)N2CCc3[nH]cnc3C2c2nc3cc(F)ccc3s2)s1 (centres unmarked) [listing 2 of 2 here]	1 to 5 µM
O=C(c1ccno1)N1CCc2[nH]cnc2C1c1nc2ccc(F)cc2s1 (centres unmarked) [listing 2 of 2 here]	1 to 5 µM
O=C(c1cnn2cc(F)ccc12)N1CCc2[nH]cnc2C1c1nc2ccc(F)cc2s1 (centres unmarked) [listing 2 of 2 here]	1 to 5 µM
O=C(c1cnn2cc(CO)ccc12)N1CCc2[nH]cnc2C1c1nc2ccccc2s1 (centres unmarked) [listing 2 of 2 here]	1 to 5 µM
CNCc1ccc2c(C(=O)N3CCc4[nH]cnc4C3c3nc4ccccc4s3)cnn2c1 (centres unmarked) [listing 2 of 2 here]	1 to 5 µM
COCc1ccc2c(C(=O)N3CC4(CC4)c4[nH]cnc4C3c3nc4ccccc4s3)cnn2c1 (centres unmarked) [listing 1 of 2 here]	> 5 µM
O=C(c1cnco1)N1CC2(CC2)c2[nH]cnc2C1c1nc2c(F)cccc2s1 (centres unmarked) [listing 1 of 2 here]	> 5 µM
O=C(c1cnco1)N1CC2(CC2)c2[nH]cnc2C1c1nc2ccccc2s1 (centres unmarked)	1 to 5 µM
COCc1ccc2c(C(=O)N3CC4(CC4)c4[nH]cnc4C3c3nc4ccccc4s3)cnn2c1 (centres unmarked) [listing 2 of 2 here]	1 to 5 µM
O=C(c1cnco1)N1CC2(CC2)c2[nH]cnc2C1c1nc2c(F)cccc2s1 (centres unmarked) [listing 2 of 2 here]	1 to 5 µM
